Assay results published in patent US20250101041A1, “POSITIVE ALLOSTERIC MODULATORS OF THE MUSCARINIC ACETYLCHOLINE RECEPTOR M4” (Vanderbilt University, priority 2022, published 2025).

Target: T1, human mAChR M4 (Homo sapiens, UniProt P08173)
T1 construct: expressed in transfected cells; host or cells: CHO-K1 (American Type Culture Collection), stably expressing hM4 and Gqi5
T1 sequence (P08173 1-479): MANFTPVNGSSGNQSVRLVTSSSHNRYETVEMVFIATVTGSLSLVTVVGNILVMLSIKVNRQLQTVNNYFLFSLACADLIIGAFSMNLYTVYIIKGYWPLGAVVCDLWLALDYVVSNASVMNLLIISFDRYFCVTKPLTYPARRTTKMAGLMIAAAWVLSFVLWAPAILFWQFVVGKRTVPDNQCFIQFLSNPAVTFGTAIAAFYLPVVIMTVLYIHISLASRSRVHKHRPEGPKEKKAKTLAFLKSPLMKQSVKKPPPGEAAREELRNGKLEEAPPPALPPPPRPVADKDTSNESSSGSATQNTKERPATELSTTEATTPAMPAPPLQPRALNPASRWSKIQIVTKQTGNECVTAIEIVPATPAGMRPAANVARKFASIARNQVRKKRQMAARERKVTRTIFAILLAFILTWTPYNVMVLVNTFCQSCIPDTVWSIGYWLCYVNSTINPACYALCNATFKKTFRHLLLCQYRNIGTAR
Assay: mAChR M4 cell-based functional assay: calcium mobilization (Fluo-4, FDSS), potentiation of EC20 acetylcholine response in hM4-Gqi5 CHO-K1 cells
Settings: human M4; for Emax at 30 µM: CHO-K1, % ACh maximum at 30 μM; for EC50: potentiation of EC20 acetylcholine response, calcium mobilization
Procedure, shortened: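 Readout is the fluorescence-ratio rise at 1 Hz on FDSS, with PAM activity taken as concentration-dependent enhancement of the EC20 acetylcholine response, fitted four-parameter for EC50/Emax. hM4-Gqi5 CHO-K1 cells carried Fluo-4 AM dye; test compounds (11 points, 1:3) preceded EC20 acetylcholine additions at 144 s and 230 s.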

| Structure (SMILES) | Emax at 30 µM | EC50 |
| --- | --- | --- |
| Cc1cc(=O)n2nc(N3CCc4ncc(-c5cc(F)ccc5C)cc4C3)c(C)cc2n1 [Compound 1-210, 7-(3-(5-fluoro-2-methylphenyl)-7,8-dihydro-1,6-naphthyridin-6(5H)-yl)-2,8-dimethyl-4H-pyrimido[1,2-b]pyridazin-4-one] | 84% | 287 nM |
| Cc1cc(=O)n2nc(N3CCc4ncc(-c5cccc(F)c5)cc4C3)c(C)cc2n1 [Compound 1-211, 7-(3-(3-fluorophenyl)-7,8-dihydro-1,6-naphthyridin-6(5H)-yl)-2,8-dimethyl-4H-pyrimido[1,2-b]pyridazin-4-one] | 76% | 446 nM |
| Cc1cc(=O)n2nc(N3CCc4ncc(-c5ccc(F)nc5)cc4C3)c(C)cc2n1 [Compound 1-212, 7-(3-(6-fluoropyridin-3-yl)-7,8-dihydro-1,6-naphthyridin-6(5H)-yl)-2,8-dimethyl-4H-pyrimido[1,2-b]pyridazin-4-one] | 83% | 867 nM |
| Cc1cc(=O)n2nc(N3CCc4ncc(-c5ccc(F)c(F)c5)cc4C3)c(C)cc2n1 [Compound 1-213, 7-(3-(3,4-difluorophenyl)-7,8-dihydro-1,6-naphthyridin-6(5H)-yl)-2,8-dimethyl-4H-pyrimido[1,2-b]pyridazin-4-one] | 82% | 443 nM |
| Cc1cc(=O)n2nc(N3CCc4ncc(-c5cnccc5C)cc4C3)c(C)cc2n1 [Compound 1-214, 2,8-dimethyl-7-(3-(4-methylpyridin-3-yl)-7,8-dihydro-1,6-naphthyridin-6(5H)-yl)-4H-pyrimido[1,2-b] pyridazin-4-one] | 82% | 139 nM |
| Cc1cc(=O)n2nc(N3CCc4ncc(-c5cnn(C(F)F)c5)cc4C3)c(C)cc2n1 [Compound 1-215, 7-(3-(1-(difluoromethyl)-1H-pyrazol-4-yl)-7,8-dihydro-1,6-naphthyridin-6(5H)-yl)-2,8-dimethyl-4H-pyrimido[1,2-b]pyridazin-4-one] | 85% | 338 nM |
| COc1ccc(-c2cnc3c(c2)CN(c2nn4c(=O)cc(C)nc4cc2C)CC3)cc1F [Compound 1-216, 7-(3-(3-fluoro-4-methoxyphenyl)-7,8-dihydro-1,6-naphthyridin-6(5H)-yl)-2,8-dimethyl-4H-pyrimido[1,2-b]pyridazin-4-one] | 79% | 380 nM |
| Cc1cc(=O)n2nc(N3CCc4ncc(-c5cn6ccnc6cc5C)cc4C3)c(C)cc2n1 [Compound 1-217, 2,8-dimethyl-7-(3-(7-methylimidazo[1,2-a]pyridin-6-yl)-7,8-dihydro-1,6-naphthyridin-6(5H)-yl)-4H-pyrimido[1,2-b]pyridazin-4-one] | 60% | 655 nM |
| Cc1cc(=O)n2nc(N3CCc4ncc(-c5c(C)nn(C)c5C)cc4C3)c(C)cc2n1 [Compound 1-218, 2,8-dimethyl-7-(3-(1,3,5-trimethyl-1H-pyrazol-4-yl)-7,8-dihydro-1,6-naphthyridin-6(5H)-yl)-4H-pyrimido[1,2-b] pyridazin-4-one] | 92% | 793 nM |
| CCn1cc(-c2cnc3c(c2)CN(c2nn4c(=O)cc(C)nc4cc2C)CC3)cn1 [Compound 1-219, 7-(3-(1-ethyl-1H-pyrazol-4-yl)-7,8-dihydro-1,6-naphthyridin-6(5H)-yl)-2,8-dimethyl-4H-pyrimido[1,2-b]pyridazin-4-one] | 80% | 341 nM |
| Cc1cc(=O)n2nc(N3CCc4ncc(-c5ccc6nccn6c5)cc4C3)c(C)cc2n1 [Compound 1-220, 7-(3-(imidazo[1,2-a]pyridin-6-yl)-7,8-dihydro-1,6-naphthyridin-6(5H)-yl)-2,8-dimethyl-4H-pyrimido[1,2-b]pyridazin-4-one] | 70% | 747 nM |
| Cc1cc(=O)n2nc(N3CCc4ncc(-c5ccc(N(C)C)nc5)cc4C3)c(C)cc2n1 [Compound 1-221, 7-(3-(6-(dimethylamino)pyridin-3-yl)-7,8-dihydro-1,6-naphthyridin-6(5H)-yl)-2,8-dimethyl-4H-pyrimido[1,2-b]pyridazin-4-one] | 58% | 170 nM |
| Cc1ccccc1-c1cnc2c(c1)CN(c1nn3c(=O)ccnc3c(C)c1C)CC2 [Compound 1-222, 8,9-dimethyl-7-(3-(o-tolyl)-7,8-dihydro-1,6-naphthyridin-6(5H)-yl)-4H-pyrimido[1,2-b] pyridazin-4-one] | 83% | 74 nM |
| Cc1c(N2CCc3ncc(-c4cncc(C#N)c4)cc3C2)nn2c(=O)ccnc2c1C [Compound 1-223, 5-(6-(8,9-dimethyl-4-oxo-4H-pyrimido[1,2-b]pyridazin-7-yl)-5,6,7,8-tetrahydro-1,6-naphthyridin-3-yl)nicotinonitrile] | 64% | 618 nM |
| Cc1c(N2CCc3ncc(-c4cnc5ccccc5c4)cc3C2)nn2c(=O)ccnc2c1C [Compound 1-224, 8,9-dimethyl-7-(3-(quinolin-3-yl)-7,8-dihydro-1,6-naphthyridin-6(5H)-yl)-4H-pyrimido[1,2-b]pyridazin-4-one] | 60% | 651 nM |
| Cc1c(N2CCc3ncc(-c4ccc5nccn5c4)cc3C2)nn2c(=O)ccnc2c1C [Compound 1-225, 7-(3-(imidazo[1,2-a]pyridin-6-yl)-7,8-dihydro-1,6-naphthyridin-6(5H)-yl)-8,9-dimethyl-4H-pyrimido[1,2-b]pyridazin-4-one] | 66% | 232 nM |
| Cc1ccc(-c2cnc3c(c2)CN(c2nn4c(=O)cc(CC5CCCC5)nc4c(C)c2C)CC3)cn1 [Compound 1-226, 2-(cyclopentylmethyl)-8,9-dimethyl-7-(3-(6-methylpyridin-3-yl)-7,8-dihydro-1,6-naphthyridin-6(5H)-yl)-4H-pyrimido[1,2-b]pyridazin-4-one] | 59% | 1190 nM |
| COCc1cc(=O)n2nc(N3CCc4ncc(-c5cc(F)ccc5C)cc4C3)c(C)c(C)c2n1 [Compound 1-227, 7-(3-(5-fluoro-2-methylphenyl)-7,8-dihydro-1,6-naphthyridin-6(5H)-yl)-2-(methoxymethyl)-8,9-dimethyl-4H-pyrimido[1,2-b]pyridazin-4-one] | 83% | 135 nM |
| COCc1cc(=O)n2nc(N3CCc4ncc(-c5cnccc5C)cc4C3)c(C)c(C)c2n1 [Compound 1-228, 2-(methoxymethyl)-8,9-dimethyl-7-(3-(4-methylpyridin-3-yl)-7,8-dihydro-1,6-naphthyridin-6(5H)-yl)-4H-pyrimido[1,2-b] pyridazin-4-one] | 85% | 34 nM |
| COCc1cc(=O)n2nc(N3CCc4ncc(-c5cnc(F)cc5C)cc4C3)c(C)c(C)c2n1 [Compound 1-229, 7-(3-(6-fluoro-4-methylpyridin-3-yl)-7,8-dihydro-1,6-naphthyridin-6(5H)-yl)-2-(methoxymethyl)-8,9-dimethyl-4H-pyrimido[1,2-b]pyridazin-4-one] | 90% | 48 nM |
| Cc1cc(=O)n2nc(N3CCc4ncc(-c5ccccc5C(C)C)cc4C3)c(C)cc2n1 [Compound 1-230, 7-(3-(2-isopropylphenyl)-7,8-dihydro-1,6-naphthyridin-6(5H)-yl)-2,8-dimethyl-4H-pyrimido[1,2-b]pyridazin-4-one] | 43% | 1300 nM |
| Cc1cc(=O)n2nc(N3CCc4ncc(-c5ccccc5C5CC5)cc4C3)c(C)cc2n1 [Compound 1-231, 7-(3-(2-cyclopropylphenyl)-7,8-dihydro-1,6-naphthyridin-6(5H)-yl)-2,8-dimethyl-4H-pyrimido[1,2-b]pyridazin-4-one] | 56% | 859 nM |
| CCc1ccccc1-c1cnc2c(c1)CN(c1nn3c(=O)cc(C)nc3cc1C)CC2 [Compound 1-232, 7-(3-(2-ethylphenyl)-7,8-dihydro-1,6-naphthyridin-6(5H)-yl)-2,8-dimethyl-4H-pyrimido[1,2-b]pyridazin-4-one] | 57% | 441 nM |
| COc1ccccc1-c1cnc2c(c1)CN(c1nn3c(=O)cc(C)nc3cc1C)CC2 [Compound 1-233, 7-(3-(2-methoxyphenyl)-7,8-dihydro-1,6-naphthyridin-6(5H)-yl)-2,8-dimethyl-4H-pyrimido[1,2-b]pyridazin-4-one] | 65% | 735 nM |
| Cc1cc(=O)n2nc(N3CCc4ncc(-c5ccccc5F)cc4C3)c(C)cc2n1 [Compound 1-234, 7-(3-(2-fluorophenyl)-7,8-dihydro-1,6-naphthyridin-6(5H)-yl)-2,8-dimethyl-4H-pyrimido[1,2-b]pyridazin-4-one] | 71% | 235 nM |
| Cc1cc(=O)n2nc(N3CCc4ncc(-c5ccccc5O)cc4C3)c(C)cc2n1 [Compound 1-235, 7-(3-(2-hydroxyphenyl)-7,8-dihydro-1,6-naphthyridin-6(5H)-yl)-2,8-dimethyl-4H-pyrimido[1,2-b]pyridazin-4-one] | 62% | 568 nM |
| Cc1cc(=O)n2nc(N3CCc4ncc(-c5cc(F)ccc5F)cc4C3)c(C)cc2n1 [Compound 1-236, 7-(3-(2,5-difluorophenyl)-7,8-dihydro-1,6-naphthyridin-6(5H)-yl)-2,8-dimethyl-4H-pyrimido[1,2-b]pyridazin-4-one] | 87% | 1600 nM |
